According to ChEMBL document CHEMBL1201862, “PubChem BioAssay data set” (2004):
The source made the active and inactive calls.

Assays:
[1] = biological target: T1, Corticotropin-releasing factor receptor 2/Corticotropin-releasing factor-binding protein (Homo sapiens, UniProt P24387+Q13324); assay: activators of CRF receptor 2 with binding protein – uHTS hits, confirmation (AID 602473); assay type: functional; conditions: read-out: EC50_Mean
T1 sequence (Q13324 whole entry): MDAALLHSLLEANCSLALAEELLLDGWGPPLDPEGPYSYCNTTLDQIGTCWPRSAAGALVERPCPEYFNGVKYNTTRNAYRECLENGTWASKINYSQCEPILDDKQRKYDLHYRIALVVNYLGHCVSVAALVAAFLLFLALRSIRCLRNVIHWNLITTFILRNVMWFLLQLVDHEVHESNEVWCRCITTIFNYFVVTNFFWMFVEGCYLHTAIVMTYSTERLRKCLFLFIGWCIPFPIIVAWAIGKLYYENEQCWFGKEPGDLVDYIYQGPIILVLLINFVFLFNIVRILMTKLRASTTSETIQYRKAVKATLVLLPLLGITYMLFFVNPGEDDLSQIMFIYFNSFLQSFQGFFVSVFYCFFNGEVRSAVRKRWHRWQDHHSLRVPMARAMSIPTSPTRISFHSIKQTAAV
T1 sequence (P24387 whole entry): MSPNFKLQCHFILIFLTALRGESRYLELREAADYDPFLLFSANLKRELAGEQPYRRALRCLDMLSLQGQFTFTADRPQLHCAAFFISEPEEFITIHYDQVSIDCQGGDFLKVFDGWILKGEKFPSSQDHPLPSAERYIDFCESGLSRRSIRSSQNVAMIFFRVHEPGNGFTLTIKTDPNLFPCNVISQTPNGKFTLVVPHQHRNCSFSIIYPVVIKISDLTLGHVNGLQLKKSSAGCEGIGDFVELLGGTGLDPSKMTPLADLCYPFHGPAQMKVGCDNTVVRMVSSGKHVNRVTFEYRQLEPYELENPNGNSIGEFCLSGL

Estrogen receptor = biological target: T2, Estrogen receptor (Homo sapiens, UniProt P03372);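 also: potency for inhibiting coactivator peptide recruitment to the receptor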
T2 sequence (P03372 whole entry): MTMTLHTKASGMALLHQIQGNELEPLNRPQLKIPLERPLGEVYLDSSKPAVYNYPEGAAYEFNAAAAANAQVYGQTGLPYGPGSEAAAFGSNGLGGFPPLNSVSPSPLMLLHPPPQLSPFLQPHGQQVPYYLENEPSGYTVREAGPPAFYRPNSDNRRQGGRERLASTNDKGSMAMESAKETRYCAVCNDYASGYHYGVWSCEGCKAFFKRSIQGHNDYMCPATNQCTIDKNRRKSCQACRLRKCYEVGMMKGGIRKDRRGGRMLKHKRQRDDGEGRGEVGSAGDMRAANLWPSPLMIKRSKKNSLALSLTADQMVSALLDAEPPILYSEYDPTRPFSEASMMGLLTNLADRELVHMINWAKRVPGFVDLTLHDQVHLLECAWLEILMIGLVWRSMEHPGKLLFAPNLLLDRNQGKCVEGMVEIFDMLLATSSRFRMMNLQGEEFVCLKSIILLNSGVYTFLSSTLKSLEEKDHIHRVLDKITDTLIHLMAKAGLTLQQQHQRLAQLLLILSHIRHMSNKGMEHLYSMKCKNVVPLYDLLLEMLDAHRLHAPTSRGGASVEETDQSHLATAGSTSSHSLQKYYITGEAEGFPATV

Aspartyl aminopeptidase = biological target: T3, Aspartyl aminopeptidase (Plasmodium falciparum 3D7, UniProt Q8I2J3); assay: Counterscreen for inhibitors of M1 and M17 aminopeptidases: QFRET-based biochemical high throughput dose response assay for inhibitors of the Plasmodium falciparum M18 Aspartyl Aminopeptidase (PFM18AAP). [Related PubChem assays: 1619 (Screening assay (M17LAP inhibitors).), 1445 (Screening assay (M1AAP inhibitors).)]
T3 sequence (Q8I2J3 whole entry): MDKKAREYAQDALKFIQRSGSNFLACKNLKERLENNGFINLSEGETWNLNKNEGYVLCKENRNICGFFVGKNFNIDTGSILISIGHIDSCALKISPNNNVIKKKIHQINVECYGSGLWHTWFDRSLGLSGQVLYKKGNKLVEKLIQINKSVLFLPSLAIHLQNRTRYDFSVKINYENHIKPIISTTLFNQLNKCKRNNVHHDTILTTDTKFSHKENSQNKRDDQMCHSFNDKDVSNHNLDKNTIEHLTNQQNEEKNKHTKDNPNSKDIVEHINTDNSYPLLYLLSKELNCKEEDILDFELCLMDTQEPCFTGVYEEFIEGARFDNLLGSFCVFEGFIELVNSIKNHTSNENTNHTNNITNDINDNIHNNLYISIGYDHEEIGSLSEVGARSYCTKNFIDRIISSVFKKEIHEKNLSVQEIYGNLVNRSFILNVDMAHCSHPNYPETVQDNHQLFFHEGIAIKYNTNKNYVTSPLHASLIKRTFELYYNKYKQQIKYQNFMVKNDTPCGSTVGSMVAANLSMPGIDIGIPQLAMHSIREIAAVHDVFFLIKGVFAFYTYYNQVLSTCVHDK

Leucine aminopeptidase = biological target: T4, Leucine aminopeptidase (Plasmodium falciparum 3D7, UniProt Q8IL11); assay: P. falciparum M17LAP inhibitors, primary screen, biochemical, fluorogenic H-Leu-NHMec substrate, 1536-well (AID 1619); assay type: functional
T4 sequence (Q8IL11 whole entry): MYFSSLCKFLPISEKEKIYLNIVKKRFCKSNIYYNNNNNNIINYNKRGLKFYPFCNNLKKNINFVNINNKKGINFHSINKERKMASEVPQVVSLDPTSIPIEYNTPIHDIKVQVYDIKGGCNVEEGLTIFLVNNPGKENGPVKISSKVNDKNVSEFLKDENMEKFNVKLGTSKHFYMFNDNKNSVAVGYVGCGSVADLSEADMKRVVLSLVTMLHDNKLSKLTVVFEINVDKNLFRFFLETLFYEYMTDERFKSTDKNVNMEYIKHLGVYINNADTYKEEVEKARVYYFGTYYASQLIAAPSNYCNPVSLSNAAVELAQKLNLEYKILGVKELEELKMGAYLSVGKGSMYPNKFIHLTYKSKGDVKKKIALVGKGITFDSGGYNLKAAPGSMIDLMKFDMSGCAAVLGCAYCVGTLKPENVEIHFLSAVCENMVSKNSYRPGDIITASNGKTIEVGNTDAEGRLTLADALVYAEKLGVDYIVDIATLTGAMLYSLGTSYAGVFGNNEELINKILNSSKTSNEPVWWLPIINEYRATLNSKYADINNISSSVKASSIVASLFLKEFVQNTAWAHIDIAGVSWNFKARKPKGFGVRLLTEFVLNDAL

Procathepsin L = Procathepsin L (Homo sapiens, UniProt P07711); assay: CTSL1 protease inhibition – biochemical, QFRET, 1536-well, counter-screen for M1/M17 aminopeptidase inhibitor project, dose response (AID 2214)
Sequence of Procathepsin L (P07711 whole entry): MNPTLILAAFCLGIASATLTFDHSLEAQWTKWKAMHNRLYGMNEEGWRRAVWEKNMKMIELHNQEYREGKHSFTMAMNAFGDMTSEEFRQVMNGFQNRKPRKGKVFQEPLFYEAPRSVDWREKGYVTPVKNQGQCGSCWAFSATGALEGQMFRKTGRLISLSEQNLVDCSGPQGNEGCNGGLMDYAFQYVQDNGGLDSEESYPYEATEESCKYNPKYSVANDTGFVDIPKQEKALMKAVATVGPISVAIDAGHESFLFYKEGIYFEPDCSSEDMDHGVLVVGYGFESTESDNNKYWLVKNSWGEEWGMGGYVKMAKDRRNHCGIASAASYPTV

[2] = viability of uninfected HEp-2 cells – cell-based, HTS, cytotoxicity control for RSV inhibitor project, dose response (AID 2410); assay type: functional; conditions: human respiratory syncytial virus
[3] = biological target: T5, Aryl hydrocarbon receptor (Homo sapiens, UniProt P35869); assay: Luminescence-based cell-based high throughput dose response assay for activators of the Aryl Hydrocarbon Receptor (AHR). [Related pubchem assays: 2796 (Primary screen (AHR activators in singlicate)), 2845 (Confirmation screen (AHR activators in triplicate)), 434939 (Counterscreen (PXR activators in triplicate)), 2804 (Summary (AHR activators))]; assay type: ADME
T5 sequence (P35869 whole entry): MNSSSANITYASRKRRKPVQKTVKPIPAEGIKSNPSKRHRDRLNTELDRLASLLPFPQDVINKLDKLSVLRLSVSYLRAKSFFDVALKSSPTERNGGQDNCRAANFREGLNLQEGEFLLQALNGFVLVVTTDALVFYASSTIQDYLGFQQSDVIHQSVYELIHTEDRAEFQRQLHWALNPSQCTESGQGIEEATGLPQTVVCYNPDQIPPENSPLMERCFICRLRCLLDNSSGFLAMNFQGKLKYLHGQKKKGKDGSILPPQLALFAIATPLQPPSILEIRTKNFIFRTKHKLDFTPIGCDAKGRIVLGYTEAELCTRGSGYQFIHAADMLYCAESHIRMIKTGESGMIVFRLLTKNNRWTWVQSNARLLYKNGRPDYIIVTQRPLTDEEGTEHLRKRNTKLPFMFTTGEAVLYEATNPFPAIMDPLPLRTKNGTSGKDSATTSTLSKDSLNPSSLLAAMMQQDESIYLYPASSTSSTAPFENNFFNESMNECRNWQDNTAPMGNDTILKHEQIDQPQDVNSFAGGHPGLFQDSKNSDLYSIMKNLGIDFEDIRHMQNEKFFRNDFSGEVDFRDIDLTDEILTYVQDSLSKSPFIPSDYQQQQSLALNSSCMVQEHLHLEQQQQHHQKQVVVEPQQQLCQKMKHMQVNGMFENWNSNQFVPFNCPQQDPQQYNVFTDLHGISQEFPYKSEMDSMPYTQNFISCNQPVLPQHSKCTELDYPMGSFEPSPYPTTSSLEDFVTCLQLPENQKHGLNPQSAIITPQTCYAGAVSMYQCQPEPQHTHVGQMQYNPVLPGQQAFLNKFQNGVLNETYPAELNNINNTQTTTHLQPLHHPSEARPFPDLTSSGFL

[4] = A cytotoxicity screen of small molecule inhibitors of the PhoP region in Salmonella typhi identified in the primary screen. [Related pubchem assays: 1850, 1864, 1985 ]; assay type: functional
Estrogen receptor beta [5] = biological target: T6, Estrogen receptor beta (Homo sapiens, UniProt Q92731);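 also: recombinant ER-beta bound to coactivator SRC1 peptide in presence of estradiol agonist; inhibitors block coactivator peptide binding and lower the FRET signal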
T6 sequence (Q92731 whole entry): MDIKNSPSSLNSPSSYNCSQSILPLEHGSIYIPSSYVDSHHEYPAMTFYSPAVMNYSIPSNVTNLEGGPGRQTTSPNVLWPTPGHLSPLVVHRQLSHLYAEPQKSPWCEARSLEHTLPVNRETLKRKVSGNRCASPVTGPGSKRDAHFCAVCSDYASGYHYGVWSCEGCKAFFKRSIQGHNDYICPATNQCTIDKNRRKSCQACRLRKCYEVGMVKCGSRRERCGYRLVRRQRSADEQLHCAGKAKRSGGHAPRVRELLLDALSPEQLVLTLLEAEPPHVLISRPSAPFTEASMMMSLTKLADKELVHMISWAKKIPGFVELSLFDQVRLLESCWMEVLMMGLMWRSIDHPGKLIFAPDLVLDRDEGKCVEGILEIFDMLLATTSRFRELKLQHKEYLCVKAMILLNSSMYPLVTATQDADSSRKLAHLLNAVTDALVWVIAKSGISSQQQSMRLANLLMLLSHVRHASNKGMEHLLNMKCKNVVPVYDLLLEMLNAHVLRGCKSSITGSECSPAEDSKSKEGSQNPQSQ

[6] = microbe, parasite or virus in culture; assay type: functional; conditions: Mycobacterium tuberculosis
[7] = Trypanosoma cruzi growth suppression in host cells – NIH3T3 host cells, beta-gal luminescence, confirmation (AID 2044); assay type: functional, cell-based;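 also: intracellular parasites grown in NIH/3T3 mouse fibroblasts as host cells; luminescent beta-galactosidase reporter signal from transgenic T. cruzi replicating inside host cells; inhibitors lower the luminescence signal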
[8] = NIH3T3 cell viability loss – ATP luminescence, mouse fibroblasts, counter-screen, dose response (AID 2010); assay type: functional, cell-based;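 also: cells exposed to compound for about 90 hours before reading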
cells [9] = assay: cells
cells [10] = assay type: functional
Cytochrome P450 2D6 = Cytochrome P450 2D6 (Homo sapiens, UniProt P10635); assay: qHTS Assay for Inhibitors and Substrates of Cytochrome P450 2D6. [Related pubchem assays: 410 ]; assay type: ADME; conditions: read-out: Potency
Sequence of Cytochrome P450 2D6 (P10635 whole entry): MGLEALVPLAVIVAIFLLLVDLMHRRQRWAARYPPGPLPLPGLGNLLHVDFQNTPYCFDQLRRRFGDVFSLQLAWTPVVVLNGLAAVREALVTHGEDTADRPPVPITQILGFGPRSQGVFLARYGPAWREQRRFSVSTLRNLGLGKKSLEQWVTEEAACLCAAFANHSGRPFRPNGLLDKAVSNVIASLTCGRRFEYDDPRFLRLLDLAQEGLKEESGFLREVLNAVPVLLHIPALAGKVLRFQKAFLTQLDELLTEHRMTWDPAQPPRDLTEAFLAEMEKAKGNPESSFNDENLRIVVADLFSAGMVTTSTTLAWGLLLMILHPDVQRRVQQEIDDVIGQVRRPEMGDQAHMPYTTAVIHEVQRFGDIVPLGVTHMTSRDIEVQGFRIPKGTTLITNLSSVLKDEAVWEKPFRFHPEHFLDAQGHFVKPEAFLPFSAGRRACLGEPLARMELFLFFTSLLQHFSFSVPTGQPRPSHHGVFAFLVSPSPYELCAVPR

Cytochrome P450 3A4 = Cytochrome P450 3A4 (Homo sapiens, UniProt P08684); conditions: Potency;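 also: confirmatory qHTS run detecting inhibitors and substrates of CYP3A4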
Sequence of Cytochrome P450 3A4 (P08684 whole entry, the tested form may be a part): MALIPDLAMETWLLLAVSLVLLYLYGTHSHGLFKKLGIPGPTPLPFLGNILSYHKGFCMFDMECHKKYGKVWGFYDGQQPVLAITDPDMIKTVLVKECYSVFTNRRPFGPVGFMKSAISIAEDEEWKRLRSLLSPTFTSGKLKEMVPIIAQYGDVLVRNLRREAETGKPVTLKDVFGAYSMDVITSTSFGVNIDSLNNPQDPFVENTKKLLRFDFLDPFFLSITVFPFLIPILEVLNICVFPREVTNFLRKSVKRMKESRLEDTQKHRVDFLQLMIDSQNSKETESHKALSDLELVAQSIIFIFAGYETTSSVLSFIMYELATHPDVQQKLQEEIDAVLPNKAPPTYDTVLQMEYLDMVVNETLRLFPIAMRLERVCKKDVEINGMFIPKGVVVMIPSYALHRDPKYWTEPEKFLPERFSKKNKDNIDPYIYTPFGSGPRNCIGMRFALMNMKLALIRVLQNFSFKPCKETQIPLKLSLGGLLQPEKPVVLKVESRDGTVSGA

[11] = biological target: T7, Carboxy-terminal domain RNA polymerase II polypeptide A small phosphatase 1 (Homo sapiens, UniProt Q9GZU7); assay: CTDSP1 inhibitors, concentration-response, biochemical, absorbance readout, ultra-high-throughput screen actives (AID 540297); assay type: functional
T7 sequence (Q9GZU7 whole entry): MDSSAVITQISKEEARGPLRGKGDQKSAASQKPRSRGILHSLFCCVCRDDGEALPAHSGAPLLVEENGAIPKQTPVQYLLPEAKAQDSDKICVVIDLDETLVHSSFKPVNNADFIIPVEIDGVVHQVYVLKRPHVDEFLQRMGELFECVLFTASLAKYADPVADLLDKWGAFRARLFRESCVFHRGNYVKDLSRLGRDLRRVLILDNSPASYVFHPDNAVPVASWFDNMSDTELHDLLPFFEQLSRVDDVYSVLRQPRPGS

Estrogen receptor beta [12] = biological target: T6, Estrogen receptor beta; assay: blockers of SRC-3 recruitment to ERβ – biochemical, ELISA, streptavidin-HRP readout, orthogonal assay, confirmation (AID 1060)
Prothrombin = Prothrombin (Homo sapiens, UniProt P00734); assay: Thrombin 1536 HTS Dose Response Confirmation. [Related pubchem assays: 1046 (Thrombin 1536 HTS; hits were confirmed in this assay)]; assay type: functional
[13] = biological target: Induced myeloid leukemia cell differentiation protein Mcl-1 (Homo sapiens, UniProt Q07820); assay type: functional
Sequence of Induced myeloid leukemia cell differentiation protein Mcl-1 (Q07820 whole entry): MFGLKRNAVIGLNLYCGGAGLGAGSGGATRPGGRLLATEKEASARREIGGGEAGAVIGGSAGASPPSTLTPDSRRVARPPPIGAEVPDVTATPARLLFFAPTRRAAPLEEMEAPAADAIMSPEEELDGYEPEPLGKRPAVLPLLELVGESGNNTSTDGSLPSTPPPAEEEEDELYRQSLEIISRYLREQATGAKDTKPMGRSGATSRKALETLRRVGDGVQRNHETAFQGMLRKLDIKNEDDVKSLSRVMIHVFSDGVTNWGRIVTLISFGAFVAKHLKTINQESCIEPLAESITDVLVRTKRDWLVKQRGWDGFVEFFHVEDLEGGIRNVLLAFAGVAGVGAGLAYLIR

## CCOC(=O)c1cc2ccccc2n1CCN(CC)CC
[1]
  EC50: 6.45 µM (active)
Estrogen receptor
  IC50: > 50 µM (not active)

## CC1(C)Cc2c(sc(NC(=O)C3CC(Cl)=CCC3C(=O)O)c2C#N)CO1 (stereo not drawn)
Aspartyl aminopeptidase
  IC50: > 73.5 µM (not active)
Leucine aminopeptidase
  IC50: 1.4 µM (active)
Procathepsin L
  IC50: > 59.6 µM (not active)

## Cc1cc(C)n2cc(-c3ccc(Cl)cc3)c(C(=O)O)c2n1
[2]
  CC50: 38.9 µM (active)
[3]
  EC50: 0.994 µM (active)

## Cc1ccc(OCC(O)Cn2c(N)nc3c2c(=O)n(C)c(=O)n3C)cc1 (stereo not drawn)
[4]
  EC50: > 50 µM (active)

## O=C(Nc1ccc(Cc2ccncc2)cc1)C1CCC(N2C(=O)C3CC=CCC3C2=O)CC1 (stereo not drawn)
Estrogen receptor beta [5]
  IC50: > 50 µM (not active)
Estrogen receptor
  IC50: > 50 µM (not active)

## O=C(c1cc([N+](=O)[O-])cc([N+](=O)[O-])c1)N(Cc1nnc(-c2ccccc2Cl)o1)C1CC1
[6]
  CC50: > 40 µM (active)
[7]
  EC50: < 100 nM (active)
[8]
  EC50: > 60 µM (not active)
Cells [9]
  EC50: 68 nM (active)
Cells [10]
  IC50: 1.75 µM (active)

## CCCCc1nc2c(c3c1CC(C)OC3)CN(CCOc1ccccc1)CC2 (stereo not drawn)
Cytochrome P450 2D6
  AC50: 3.16 µM (inconclusive)
Cytochrome P450 3A4
  AC50: 3.16 µM (inconclusive)

## C=CCn1c(N)cc(=O)nc1SCC(=O)Nc1ccc2ccccc2c1
Aspartyl aminopeptidase
  IC50: > 73.5 µM (not active)
Leucine aminopeptidase
  IC50: 5.68 µM (active)
Procathepsin L
  IC50: > 59.6 µM (not active)

## CN(C)c1ccc(CNCCC2CCOC(C)(C)C2)cc1 (stereo not drawn)
[7]
  EC50: < 100 nM (active)
[8]
  EC50: > 30 µM (not active)
Cells [9]
  EC50: 36 nM (active)

## O=C(Nc1cccc(-c2cn3cccnc3n2)c1)c1ccc2c(c1)OCO2
Estrogen receptor
  IC50: 6.67 µM (active)

## Nc1c(C(=O)c2ccc(Br)cc2)oc2ccccc12
[3]
  EC50: 3.3 µM (active)

## CCN(/N=C/c1ccc(Cl)cc1)c1cc(=O)n(C)c(=O)[nH]1
[3]
  EC50: 1.12 µM (active)

## Cc1ccc(/C=c2\sc3nc(-c4ccccc4Br)nn3c2=O)o1
[11]
  IC50: 5.95 µM (active)
Estrogen receptor beta [5]
  IC50: > 50 µM (not active)
Estrogen receptor beta [12]
  IC50: 61.1 nM (not active)
Prothrombin
  IC50: > 50 µM (not active)
[13]
  IC50: 3.18 µM (active)
Leucine aminopeptidase
  IC50: 95.5 µM (active)

## CC1=NCCc2c1[nH]c1cc(O)ccc21 [HARMALOL]
Cytochrome P450 2D6
  AC50: 31.6 µM (inconclusive)
